Read-outs that look alike come from different tables or passages of the source.
Assay: Plasma and tumor tissue concentrations following oral administration in VCaP xenograft model (HPLC/MS/MS)
Format: in vivo, mice
Settings: mouse, 10 mg/kg orally once daily for 3 days
Method: The plasma and tumor tissue concentrations of the drug administered orally to a xenograft model using VCaP cells were analyzed as follows.
[Blood collection and tumor tissue extraction] The prepared drug was administered orally at a dose of 10 mg/kg once daily at the same time for 3 days. The mice were sacrificed 2, 6, and 24 hours after the last administration. Blood collection and tumor tissue extraction were performed immediately after sacrifice at each hour. Blood collected from the heart was placed in a K2EDTA tube for 30 minutes and then centrifuged at 15,000 rpm at 4°C for 10 minutes. The supernatant plasma was separated and stored at -20°C for analysis. The extracted tumor tissue was washed in PBS, cut into pieces of approximately 10 mg, and stored at -80°C for analysis.
[Sample Preparation] Cancer tissue was homogenized once at 5,500 rpm for 20 seconds after adding distilled water 9 times the tissue weight using a tissue homogenizer (Precellys Evolution, Bertin Technology). For cancer tissue, 20 µL of the homogenate was mixed with 20 µL of blank plasma sample, 20 µL of internal standard (carbamazepine, 30 ng/mL in acetonitrile), and 140 µL of acetonitrile. For plasma, 20 µL of the plasma sample was mixed with 20 µL of blank liver tissue sample, 20 µL of internal standard, and 140 µL of acetonitrile. Afterwards, the mixed sample was suspended for 10 minutes using a vortex mixer and centrifuged at 13,500 rpm for 10 minutes at room temperature. 140 µL of the supernatant was collected and transferred to an analysis container.
[Sample Analysis] Drug concentrations in cancer tissue and plasma samples were quantified using an HPLC/MS/MS system. 5 µL of the sample prepared in the analytical vessel was injected into the HPLC/MS/MS system for analysis. For drug quantification, a combination of 0.1% formic acid in distilled water and 0.1% formic acid in acetonitrile was used as the mobile phase. The analytical column used was a reverse-phase C18 column, and chromatograms were analyzed using isocratic elution. Ion detection was performed in ESI positive MRM mode, and peak integration was performed using Analyst software version 1.6.4 (Applied Biosystems/MDS SCIEX). Drug concentrations in cancer tissue were calculated by multiplying the concentrations obtained from the analysis of cancer tissue homogenate by a dilution factor of 10.

SMILES: N#Cc1ccc(N2CCC(C(=O)Nc3ccc(OC4CCN(CC5CCN(c6ccc(N[C@H]7CCC(=O)NC7=O)cc6F)CC5)CC4)cn3)CC2)cc1C(F)(F)F [Example 2, (S)-1-(4-cyano-3-(trifluoromethyl)phenyl)-N-(5-((1-((1-(4-((2,6-dioxopiperidin-3-yl)amino)-2-fluorophenyl)piperidin-4-yl)methyl)piperidin-4-yl)oxy)pyridin-2-yl)piperidine-4-carboxamide]
- concentration at 2 h (plasma, 2 hours after the last administration, read-out: Concentration in Plasma): 816 ng/mL
- concentration at 6 h (plasma, 6 hours after the last administration, read-out: Concentration in Plasma): 610 ng/mL
- concentration at 24 h (plasma, 24 hours after the last administration, read-out: Concentration in Plasma): 51 ng/mL
- Kp at 2 h (tumor tissue / plasma, 2 hours after the last administration, read-out: Tissue to Plasma Ratio): 6.78
- Kp at 6 h (tumor tissue / plasma, 6 hours after the last administration, read-out: Tissue to Plasma Ratio): 10.1
- Kp at 24 h (tumor tissue / plasma, 24 hours after the last administration, read-out: Tissue to Plasma Ratio): 16.3
- concentration at 2 h (tumor tissue, 2 hours after the last administration, read-out: Concentration in Tumor Tissue): 5560 ng/g
- concentration at 6 h (tumor tissue, 6 hours after the last administration, read-out: Concentration in Tumor Tissue): 6130 ng/g
- concentration at 24 h (tumor tissue, 24 hours after the last administration, read-out: Concentration in Tumor Tissue): 834 ng/g
